Experimental data reported in patent US11054413B2, “Materials and methods for assaying living cells” (UNIVERSITY OF MARYLAND, COLLEGE PARK, priority 2014, dated 2021).
“Also recorded” adds a separate entry of the source.

Tests used:
[1] = test system: Patient-derived cells; test: McTN and stem cell responses of patient-derived cells to drugs (Table 2, predicted); assay type: cell-based, human; conditions: 30 minutes at the concentration given
Protocol: Patient-derived cells are treated with either vehicle (0.1% DMSO) or each of the drugs in Table 2 at the indicated concentration for 30 minutes and then analyzed for McTN incidence.

[2] = test system: epithelial cells; conditions: Liu et al. 2012; Suprynowicz et al. 2012; cited from earlier work
[3] = test system: MDA-MB-436 cells; test: Tethering washing, cell retention; assay type: cell-based, human
Protocol: (§1) MDA-MB-436 and MCF-7 cells were seeded on PEM coated micro-slides with 4 bilayers and addition of DOPC or DOTAP (50,000 cells/channel). Cells were incubated for 1 h to allow for tethering. To quantify initial cell number, three images per channel were taken for each condition at time 0. After 1 h, existing media was gently removed from the bottom port of each channel and fresh media was added to the top port. Following a wash, three images were taken per channel for each condition using an Olympus CKX41 microscope at 4× magnification. This process was repeated for each wash. The area of the image occupied with cells (as a percent) was quantified using CellProfiler and the average from three images was calculated. The average percentage for each condition was then normalized to the area occupied at time 0.

[4] = test system: MCF-7 cells; test: Tethering washing, cell retention; assay type: cell-based, human
Protocol: as §1

[5] = test system: SkBr3 cells; test: McTN scoring in detached SkBr3 cells, confocal microscopy for tubulin (FIG. 4); assay type: cell-based; conditions: nonmetastatic SkBr3 cells
Description: FIG. 4. Targeting cell division can increase McTNs. […] (Bars=mean±S.D from 3 expts. with McTNs scored blindly).

[6] = test system: MDA-MB-436 cells; test: Real-time McTN imaging of PEM-DOTAP tethered cells with drug treatment (FIG. 29B); assay type: cell-based, human; conditions: for McTN formation: PEM-DOTAP tether; for McTN dynamics over time: compared to vehicle control, time-lapse
Protocol: FIG. 29. Lipid tethering allows for real-time microtentacle imaging in response to drug treatment and minimizes effects of drift. (A) Microtentacle (arrows) imaging of MDA-MB-436 cells seeded on micro-slides with PEM-no tether (i-iii) and PEM-DOTAP tether (iv-vi). Representative […] slice (i and iv), maximum z-projection of 5 slices at one time point (ii and v), and maximum t-projection after 20 frames (iii and vi) are shown at 60× magnification. (B) Microtentacle (arrow) imaging of MDA-MB-436 cells seeded on micro-slides with PEM-DOTAP tether after treatment with 5 uM colchicine for 15 minutes and 1 μg/ml Taxol for 120 minutes. Maximum intensity z-projections of five […] slices at one time point are shown at 60× magnification. Scale bar represents […]
MDA-MB-436 cells were trypsinized, spun down, and resuspended in phenol red-free and serum-free DMEM. Cells were seeded on PEM coated micro-slides with 4 bilayers and PEM coated micro-slides with 4 bilayers and the addition of DOTAP (50,000 cells/channel). Cells were incubated for 1 h to allow for tethering. After 1 h, one wash was done where the existing media was gently removed from the bottom port of each channel and fresh media was added to top port. This wash was to ensure only tethered cells were analyzed. After this wash, CellMask orange cell membrane dye was added to each channel to a final concentration of 1:10,000. McTN imaging was done on an Olympus FV100 confocal laser scanning microscope at 60× magnification. Five 1 uM slices and 20 frames at a 10 sec frame rate were taken for at least five image sets for each condition. Colchicine was added to each channel at a final concentration of 5 uM and cells were imaged after 15 minutes. Taxol was added to each channel at final concentration of 1 μg/ml and imaged after 120 minutes. Cells were again imaged with five […] slices and 20 frames at a 10 second frame rate.

[7] = test system: SkBr3 cells; conditions: Balzer et al. 2010, see FIG. 4; cited from earlier work
[8] = test system: MDA-436 cells; test: Automated McTN analysis (FIG. 24); assay type: cell-based, human; conditions: at least 10 random cells
Description: FIG. 24. Automated McTN analysis. […] A gradient vector flow snake algorithm was used to define the cell edges and a local curvature maxima effectively identified McTN ends (yellow diamonds). […] This automated cell shape analysis will also enable calculations of average McTN length, curvature, etc. that will yield more multi-dimensional data for McTN studies.

[9] = test system: MDA-436 breast tumor cells; test: Quantitative image analysis of time-dependent McTN metrics and tip tracking (FIG. 36-37); assay type: cell-based, human
Description: FIG. 36. Quantitative image analysis of time-dependent McTN metrics. A) MDA-436 breast tumor cells that were tethered with a PEM+DOTAP surface coating were imaged for McTNs with confocal microscopy (5 z-slices of 1 μm, max intensity projection shown). A custom MATLAB algorithm was applied to the image data to find the cell periphery (Perimeter trace) and then locate local points of maximum perimeter curvature (McTN Tracker). B) Analyzing cells at 10 s timepoints allows the dynamic movement of McTNs under vehicle-treated conditions to be appreciated (blue lines).
FIG. 37. Tracking individual McTN tip motion. Applying a particle-tracking algorithm to the McTN tips identified in FIG. 36 allows the movement of individual McTN tips (color-coded) to be followed over time.
Using breast cancer cell lines, we developed a custom MATLAB algorithm to identify McTN ends (points of local surface curvature maxima on a perimeter trace). Combined with automated identification of the cell body (erosion mask), both the number and lengths of individual McTNs can be defined. Now that we have succeeded in tethering tumor cells to PEM-DOTAP surfaces, it dramatically improves our ability to collect time-lapse confocal imaging without the blurring that occurs with even minor cell drift. […] By comparison, the variance of all three measures is reduced in Taxol-treated cells, reflecting the effect of stabilizing microtubules. Individual McTN tips can also be followed with MATLAB particle tracking to quantitate McTN dynamics (FIG. 37).

[10] = test system: stem cell characteristics; conditions: Gupta et al. 2009; cited from earlier work
[11] = test system: CTCs; conditions: neoadjuvant treatment in advance of surgery; cited from earlier work
[12] = test system: tumor cells; conditions: tumor cells treated with taxol; cited from earlier work
[13] = test system: tumor cells; test: Retention of tethered cells after formaldehyde crosslinking of DOTAP to PEM (FIG. 38B); assay type: cell-based; conditions: DOTAP crosslinked to PEM with formaldehyde vs charge interaction, multiple washes
Description: FIG. 38. PEM coating for McTN studies.
We assembled PEMs from alternating layers of polymethacrylic acid (PMA) and polyacrylamide (PAAm) to coat microfluidic channels with very thin (100-1000 Angstroms) multilayers that retain high optical clarity. […] This crosslinking approach enables us to conduct improved imaging, time-dependent drug treatments without causing cell drift, but also illustrates that photo-crosslinking could be used to develop patterned arrays to facilitate tumor cell mechanical measurements and cell fate studies.

[14] = terminal lipid on 4 PMA/PAAm bilayers, successive washes
[15] = Taxol 1 μg/ml, PEM+DOTAP tethered
[16] = Taxol, McTN tip particle tracking
[17] = first wash, 4 PMA/PAAm bilayers, 1 h tethering

SMILES: O=S(=O)(c1cccc2cnccc12)N1CCCNCC1 [Fasudil]
- Predicted stemness & McTN effect [1]: Increase

SMILES: C/C(=C\c1csc(C)n1)[C@@H]1C[C@@H]2O[C@]2(C)CCC[C@H](C)[C@H](O)[C@@H](C)C(=O)C(C)(C)[C@@H](O)CC(=O)N1 [Ixabepilone]
- Predicted stemness & McTN effect [1]: Increase

SMILES: O=S(=O)(c1cccc2c(I)cccc12)N1CCCNCC1 [ML-7]
- Predicted stemness & McTN effect [1]: Decrease

SMILES: C[C@@H](N)[C@H]1CC[C@H](C(=O)Nc2ccncc2)CC1 [Y-27632]
- Predicted stemness & McTN effect [1]: Increase
- stem cell conversion [2]: conversion is occurring

SMILES: CCCCCCCC/C=C\CCCCCCCC(=O)OC[C@H](COP(=O)([O-])OCC[N+](C)(C)C)OC(=O)CCCCCCC/C=C\CCCCCCCC [DOPC, 1,2-dioleoyl-sn-glycero-3-phosphocholine]
- tethering of tumor cells [3, 14]: unable to effectively tether either type of tumor cells
- tethering of tumor cells [4, 14]: unable to effectively tether either type of tumor cells

SMILES: CN(C)S(=O)(=O)c1ccc2c(c1)/C(=C/c1cc3c([nH]1)CCCC3)C(=O)N2 [SU6656]
- Predicted stemness & McTN effect [1]: Increase

SMILES: CC(=O)O[C@H]1C(=O)[C@@]2(C)[C@H]([C@H](OC(=O)c3ccccc3)[C@]3(O)C[C@H](OC(=O)[C@H](O)[C@@H](NC(=O)c4ccccc4)c4ccccc4)C(C)=C1C3(C)C)[C@]1(OC(C)=O)CO[C@@H]1C[C@@H]2O [Paclitaxel]
- levels of McTNs ([5]; Paclitaxel-Taxol 1.2 μM): increases levels of McTNs dramatically
- McTN formation ([6]; Taxol 1 μg/ml, 120 minutes): enhances McTNs; also recorded: enhanced McTN formation
- McTN dynamics over time ([6]; taxol): hyperstabilizes McTNs dramatically decreasing their dynamics
- McTNs [7]: strongly promote McTNs
- average number of McTNs per cell ([8]; paclitaxel 1 μM): increases McTNs, but this does not reach significance
- range of McTN measurements and variance of all metrics ([9]; Taxol 1 μg/ml, 10 s timepoints): reduced; also recorded: strongly reduces the range of McTN measurements and the variance of all metrics
- McTN length [9, 15]: increases
- number of McTNs per cell >4 μm from cell periphery (McTN number) [9, 15]: increases the number of McTNs per cell
- McTN persistence (area over which a McTN moves) [9, 16]: make McTNs more persistent
- average McTN speed [9, 16]: reduce average McTN speed
- Predicted stemness & McTN effect [1]: Increase
- stem cell characteristics and tumor metastasis [10]: increases stem cell characteristics and even tumor metastasis
- increase of CTCs [11]: more than 1000 fold
- lung trapping of tumor cells [12]: greater lung trapping of tumor cells

SMILES: CC(=O)O[C@@]12CO[C@@H]1C[C@H](O)[C@@]1(C)C(=O)[C@H](O)C3=C(C)[C@@H](OC(=O)[C@H](O)[C@@H](NC(=O)OC(C)(C)C)c4ccccc4)C[C@@](O)([C@@H](OC(=O)c4ccccc4)[C@H]21)C3(C)C [Docetaxel]
- Predicted stemness & McTN effect [1]: Increase

SMILES: COc1cc2c(c(OC)c1OC)-c1ccc(OC)c(=O)cc1[C@@H](NC(C)=O)CC2 [Colchicine]
- McTN formation ([6]; colchicine 5 uM, 15 minutes): decreases microtentacles; also recorded: inhibited McTN formation
- McTN dynamics over time ([6]; colchicine): shrinks McTNs and enhances cell blebbing
- average number of McTNs per cell ([8]; colchicine 50 μM): significantly reduces the average number of McTNs per cell
- McTNs ([9]; Colchicine 50 μM, PEM+DOTAP tethered): completely inhibits McTN generation; also recorded: completely eliminates McTNs
- Predicted stemness & McTN effect [1]: Decrease

SMILES: C=C1C(=O)O[C@@H]2/C=C(\C)CC/C=C(\C)CC[C@@H]12 [Costunolide]
- Predicted stemness & McTN effect [1]: Decrease

SMILES: CCCCCCCC/C=C\CCCCCCCC(=O)OCC(C[N+](C)(C)C)OC(=O)CCCCCCC/C=C\CCCCCCCC (stereo not shown) [DOTAP, 1,2-dioleoyl-3-trimethylammonium-propane]
- retention of tethered tumor cells [13]: dramatically improves retention of tethered tumor cells during multiple washes; also recorded: significantly improves initial tethering efficiency and resistance to washing
- cell retention [3, 17]: 38%
- cell retention ([4]; after five washes): 15%
- cell retention [4, 17]: 80%

SMILES: C/C1=C\[C@H](C)C[C@H](C)OC(=O)C[C@H](c2ccc(O)cc2)NC(=O)[C@@H](Cc2c(Br)[nH]c3ccccc23)N(C)C(=O)[C@H](C)NC(=O)[C@@H](C)C1 [Jasplakinolide]
- levels of McTNs ([5]; Jas 500 nM): increases levels of McTNs dramatically
- McTNs [7]: strongly promote McTNs
- Predicted stemness & McTN effect [1]: Decrease

SMILES: CC[C@]1(O)C[C@@H]2CN(CCc3c([nH]c4ccccc34)[C@@](C(=O)OC)(c3cc4c(cc3OC)N(C)[C@H]3[C@@](O)(C(=O)OC)[C@H](OC(C)=O)[C@]5(CC)C=CCN6CC[C@]43[C@@H]65)C2)C1 [Vinblastine]
- Predicted stemness & McTN effect [1]: Decrease
